Data from patent US20220145264A1, “CULTURE MEDIUM FOR MAMMALIAN EXPANDED POTENTIAL STEM CELLS, COMPOSITION, AND METHODS THEREOF” (THE UNIVERSITY OF HONG KONG, priority 2019, published 2022).
“Also recorded” adds a separate entry of the source.

How the values were obtained:
H1-EPSCs = assay: Requirement of individual culture components for hEPSCs (RT-qPCR, AP+ colony formation); assay type: cell-based, human
Method: (§1) Porcine and human EPSC cultures were routinely maintained on STO feeders. STO feeder plates were prepared 3-4 days before passaging by thawing and plating the mitomycin C inactivated STO cells on 0.1% gelatinised plates at the density of ˜1.1×10^4 cells/cm^2. Porcine/human EPSC cells were maintained on STO feeder layers and enzymatically passaged every 3-5 days by a brief PBS wash followed by treatment for 3-5 minutes with 0.25% trypsin/EDTA (Gibco, Cat. No. 25500-054). The cells were dissociated and centrifuged (300 g×5 minutes) in M10 medium. M10: knockout DMEM (Gibco, Cat. No. 10829-018), 10% FBS (Gibco, Cat. No. 10270), 1× Glutamine Penicillin-Streptomycin (Thermo Fisher Scientific, Cat. No. 11140050) and 1×NEAA (Thermo Fisher Scientific, Cat. No. 10378-016). After removing supernatant, the porcine/human EPSCs were re-suspended and seeded in pEPSCM/hEPSCM supplemented with 5 μM ROCK inhibitor Y-27632 (Tocris, Cat. No. 1254). 5% FBS (Gibco, Cat. No. 10270) and 10% KnockOut Serum Replacement (KSR) (Gibco, Cat. No. 10828028) were added in pEPSCM and hEPSCM respectively to improve cells survive. 12-24 hours later, medium was switched to pEPSCM/hEPSCM only. Both pEPSCM and hEPSCM are N2B27 based media. N2B27 basal media (500 ml) was prepared by inclusion of the following components: 482.5 ml DMEM/F-12 (Gibco, Cat. No. 21331-020), 2.5 ml N2 supplement (Thermo Fisher Scientific, Cat. No. 17502048), 5 ml B27 supplement (Thermo Fisher Scientific, Cat. No. 17504044), 5 ml 1× Glutamine Penicillin-Streptomycin (Thermo Fisher Scientific, Cat. No. 11140-050), and 5 ml 1×NEAA (Thermo Fisher Scientific, Cat. No. 10378-016), 0.1 mM 2-mercaptoethanol (Sigma, Cat. No. M6250). pEPSCM (500 ml) was generated by adding the following small molecules and cytokines into 500 ml N2B27 basal media: 0.2 μM CHIR99021(GSK3i, TOCRIS, Cat. No. 4423), 1 μM WH-4-023 (SRC inhibitor, TOCRIS, Cat. No. 5413), 2.5 μM XAV939 (Sigma, Cat. No. X3004) or 2.5 μM IWR-1 (TOCRIS, Cat. No. 3532), […] Vitamin C (Sigma, Cat. No. 49752-100G), 10 ng/ml LIF (Stem Cell Institute, University of Cambridge. SCI) and 20 ng/ml ACTIVIN (SCI). hEPSCM (500 ml) was generated by adding the following components into 500 ml N2B27 basal media: 1.0 μM CHIR99021(GSK3 inhibitor, TOCRIS, Cat. No. 4423), 0.5 μM A-419259 (SRC inhibitor, TOCRIS, Cat. No. 3914), 2.5 μM XAV939 (Sigma, Cat. No. X3004), […] Vitamin C (Sigma, Cat. No. 49752-100G), 10 ng/ml LIF (SCI). Although both targeting SRC family kinases (SFKs), WH-4-023 and A419259 were preferred for porcine and human EPSCs, respectively. […] The concentrations of CHIR99021 for porcine and human EPSC cultures are 0.2 μM and 1.0 μM, respectively. […] 0.25 μM SB 590885 (BRAF inhibitor, R&D, Cat. No. 2650) and 2.0 μM SP600125 ([…], TOCRIS, Cat. No. 1496) were included to improve porcine and human EPSC cultures, but they were not essential for the routine maintenance of porcine and human EPSCs. All cell cultures in this paper were performed under conditions of 37° C. and 5% CO2 unless stated otherwise.
(§2) Total RNA was isolated using an RNeasy Mini Kit (Qiagen, Cat. No. 74106) for cultured cells or RNeasy Micro Kit (Qiagen, Cat. No. 74034) for sorted NANOS3-mCherry^+ cells. RNA was subsequently quantified and treated with gDNA WipeOut to remove genomic DNA. Complementary DNA (cDNA) was prepared using a QuantiTect Reverse Transcription Kit (Qiagen, Cat. No. 205311). RT-qPCR primers or TaqMan Gene Expression Assays (Life Technologies) are listed in Supplementary Table 10 and 11. ABsolute Blue qPCR ROX Mix (ABgene, Cat. No. AB4138B) were used for probe based qPCR assays and SYBR Green ROX qPCR Mastermix (Qiagen, Cat. No. 330523) were used for primer based qPCR assays. All qPCR reactions were performed on ABI 7900 HT Sequence Detection System (Life Technologies). Information on all primers and probes used for qPCR analysis are provided in Supplementary Table 10 and 11. Gene expression was determined relative to GAPDH using the […]. […]

pEPSCs^Emb = assay: Requirement of individual culture components for pEPSCs (RT-qPCR, AP+ colony formation); assay type: cell-based, porcine; conditions: for number of colonies from single cells / pluripotency gene expression: removing the component from pEPSCM
Method: as §1, §2

human EPSCs = assay: Differentiation of human EPSCs to trophoblast lineages (CDX2-H2B-Venus reporter flow cytometry, RT-qPCR); assay type: cell-based
Method: hEPSCs were dissociated with 0.25% trypsin/EDTA and seeded in gelatinised 6-well plates at a density of 0.1×10^6 cells/well. The cells were cultured in 20% KSR media supplemented with 5 μM ROCK inhibitor Y-27632 for 1 day. 20% KSR media: DMEM/F-12 (Gibco, Cat. No. 21331-020), 20% KnockOut Serum Replacement (KSR) (Gibco, Cat. No. 10828-028), 1× glutamine penicillin-streptomycin (Thermo Fisher Scientific, Cat. No. 11140-050), 1×NEAA (Thermo Fisher Scientific, Cat. No. 10378-016) and 0.1 mM 2-mercaptoethanol (Sigma, Cat. No. M6250). From the second day, different combinations of the TGFβ inhibitor SB431542 (10 μM, Tocris, Cat. No. 1514), BMP4 (50 ng/ml, R&D, Cat. No. 5020-BP) and the FGF receptor inhibitor PD173074 (0.1 μM, Tocris, Cat. No. 3044) were added into 20% KSR media to start the trophoblast differentiation. The cells were collected at indicated time points for analysis.

[1] = system: NANOS3-H2BmCherry reporter pEPSCs^Emb; assay: Induction of pPGCLCs from NANOS3-H2BmCherry reporter pEPSCs (EBs, FACS); assay type: cell-based, porcine; conditions: inhibition of BMP2/4 signaling in EB culture
Method: To analyse the contribution of donor mCherry^+ porcine EPSCs in day 25-27 chimeras, the half fetuses were dissected into small pieces representing several body parts (head, trunk and tail). The dissected tissues and placenta were digested with 1.0 mg/ml collagenase IV (Thermo Fisher Scientific, Cat. No. 17104019) for 1-3 hours at 37° C. on a shaker. A pipette was used to blow the tissue blocks and dissociate them into single cells. The dissociated cells were filtered with a 35 μm nylon mesh (Corning, Cat. No. 352235) to remove tissues clumps. After centrifugation, the cells were fixed using Fixation Medium according to the manufacturers' manual (BD Cytofix, Cat. No. 554655) and the washed cells were stored at 4° C. in PBS supplemented with 0.1% NaN3 (Sigma, Cat. No. 199931) and 5% FBS (Gibco, Cat. No. 10270) before analysed with flow cytometry. All the samples were analysed using BD LSR Fortessa cytometer. 561 nm (610/20 bandpass filter) and 488 nm (525/50 bandpass filter) channels were used to detect mCherry and excluded autofluorescence. PGC EBs were trypsinized with 0.25% trypsin/EDTA Gibco, Cat. No. 25500-054) at 37° C. for 15 mins and stained with PerCP-Cy5.5 conjugated anti-TNAP antibody. 561 nm (610/20 bandpass filter) and 488 nm (710/50 bandpass filter) channels were used to detect NANOS3-H2BmCherry^+/TNAP^+ cells. FACS data were analysed by Flowjo software. […]

Molecule: COc1ccc(N(C(=O)Oc2c(C)cccc2C)c2ccnc(Nc3ccc(N4CCN(C)CC4)cc3)n2)c(OC)c1 [WH-4-023]
- pluripotency gene expression (H1-EPSCs; WH-4-023 used instead of A419259 in human EPSCs): lower pluripotency gene expression
- expression of pluripotency factors (pEPSCs^Emb; removal of the SRC inhibitor, porcine EPSCs): reduced expression of pluripotency factors

Molecule: NC(=O)c1ccc(-c2nc(-c3ccc4c(c3)OCO4)c(-c3ccccn3)[nH]2)cc1 [SB431542]
- cell differentiation (H1-EPSCs; adding the TGFβ inhibitor, human EPSCs): induced rapid cell differentiation
- cell survival and pluripotency factor expression (pEPSCs^Emb; adding the TGFβ inhibitor to pEPSCM): massive cell loss and down-regulation of pluripotency factors
- CDX2 reporter cells being CDX2-Venus+ (human EPSCs; TGFβ inhibition, cells collected 4 days after): 70%

Molecule: Cc1c[nH]c(-c2cnc(NCCNc3ccc(C#N)cn3)nc2-c2ccc(Cl)cc2Cl)n1 [CHIR99021]
- differentiation of EPSCs (H1-EPSCs; high concentration 3.0 μM, human EPSCs): induced differentiation; also recorded: induces porcine and human EPSC differentiation
- proliferation (H1-EPSCs; human EPSCs): improved proliferation
- differentiation of EPSCs (pEPSCs^Emb; high concentration 3.0 μM, porcine EPSCs): induced differentiation; also recorded: induces porcine and human EPSC differentiation
- proliferation (pEPSCs^Emb; porcine EPSCs): improved proliferation
- number of colonies from single cells (pEPSCs^Emb): reduced
- pluripotency gene expression (pEPSCs^Emb): did not affect

Molecule: CN1CCN(C2CCC(n3cc(-c4ccc(Oc5ccccc5)cc4)c4c(N)ncnc43)CC2)CC1 (stereo not shown) [A419259]
- expression of pluripotency factors (H1-EPSCs; removal of the SRC inhibitor, human EPSCs): reduced expression of pluripotency factors

Molecule: O=C1O[C@H]([C@@H](O)CO)C(O)=C1O [Vitamin C]
- number of colonies from single cells (pEPSCs^Emb): reduced
- pluripotency gene expression (pEPSCs^Emb): did not affect

Molecule: c1ccc2c(-c3cnn4cc(-c5ccc(N6CCNCC6)cc5)cnc34)ccnc2c1 [LDN-193189]
- formation of mCherry+/TNAP+ cell clusters [1]: abrogated

B1: BMP4: cytokine (R&D, Cat. No. 5020-BP) promoting differentiation of human ESCs to putative trophoblasts (protein, UniProt P21275 293-408, looked up)
Bone morphogenetic protein 4: SPKHHPQRSRKKNKNCRRHSLYVDFSDVGWNDWIVAPPGYQAFYCHGDCPFPLADHLNSTNHAIVQTLVNSVNSSIPKACCVPTELSAISMLYLDEYDKVVLKNYQEMVVEGCGCR
- expression of trophoblast genes (human EPSCs; 4-day BMP4 treatment, H1-EPSCs and iPSC-EPSCs versus H1-ESCs or H1-5i naïve ESCs): induced expression of trophoblast genes
